Square brackets hold non-standard residues; d marks the D form. Peptide text beside a SMILES is read from it. Gly(N-CH2CH2-imidazol-4-yl) = O=C(O)CNCCc1c[nH]cn1; Nspe = C[C@H](NCC(=O)O)c1ccccc1; Nlys = NCCCCNCC(=O)O Where only a bound is given, the exact number is not on record here.

These results are taken from patent publication US20100036088A1, “Selective poly-N-substituted glycine antibiotics” (priority 2008, published 2010).

Data set [1] relates to Staphyloccus aureus (ATCC #25923). Put plainly: Murine intraperitoneal infection model. The following applies: mouse, 4 mg/kg I.P.; eleven mice treated with 1-Nhis6,12. It counts as in vivo. The procedure: Using a murine peritoneal injection mouse model, the ability of peptoids to treat infection was evaluated in vivo. The results from three separate studies of peptoid 1 and two of peptoid 1-Nhis6,12 against saline treated controls are shown in FIG. 7. The horizontal line represents the geometric mean of each population.
Murine intraperitoneal infection model. Bacteria was prepared by inoculating 5 mL of MHB with a single colony of Staphyloccus aureus (ATCC #25923) from a freshly streaked plate and grown overnight at 37 C. The following morning, the bacteria was subcultured by diluting 1/3 in MHB and grown for approximately 1.5 hours. The bacteria were then diluted 10-fold in a 5% mucin in PBS solution and thoroughly mixed. A sample was reserved to later determine the amount of bacteria the mice received.
Mice were weighed, marked, and injected I.P. with 200 uL of S. aureus inoculum. Four hours post infection, mice were treated I.P. with 4 mg/kg peptoid (˜100 ug per mouse). The infection is allowed to proceed overnight. Mice were euthanized by CO2 asphyxiation after 24 hours, and the peritoneal cavity was exposed and lavaged with 5 mL PBS. The lavage was mixed and reserved on ice until plating. […] Colonies were counted the following day, and the CFU/ml of each sample was calculated. […]

The test system of data set [2] is E. coli JM109. It counts as cell-based. An excerpt:
(§1) An initial set of 15 ampetoid analogs was synthesized to determine whether peptoids are affected by structural and sequence modifications in a manner consistent with AMP activities. The designs for ampetoids in this library were derived from two antibacterial and selective amphipathic dodecamers, 1 and 2. Peptoid 1 [H-(Nlys-Nspe-Nspe)4—NH2] is composed of 2/3 Nspe, the peptoid analog of phenylalanine, and 1/3 Nlys, the peptoid analog of lysine (see FIG. 1 for the structures of representative peptoid monomers and corresponding N-substituents). Peptoid 2 [H-(Nlys-Nssb-Nspe)4—NH2] contains 1/3 isoleucine-like Nssb monomers in place of Nspe. The variant sequences were designed to effect changes in chirality, length, hydrophobicity, charge, and amphipathicity. All of these compounds were tested for antibacterial activity against representative BSL1 Gram-negative (E. coli JM109) and Gram-positive (B. subtilis BR151) bacterial strains. As an initial measure of selectivity, the lytic activity of the peptoids was determined against human erythrocytes. Table 1 summarizes the sequences synthesized, the solvent composition at RP-HPLC elution as a relative measure of molecular hydrophobicity, and antibacterial and hemolytic activities.
(§2) Antibacterial assays. MICs were determined according to CLSI M7-A6 protocols in a 96-well microtiter plate. In test wells, 50 μL bacterial inoculum (5×10^5 CFU/ml) in Mueller-Hinton broth (MHB) was added to 50 μL peptoid solution in MHB (prepared by 1:2 serial dilutions). Positive controls contained 50 μL inoculum and 50 μL MHB without peptoid. […] MIC values reported were reproducible between three independent experimental replicates, each consisting of two parallel trials. Broad-spectrum antimicrobial susceptibility testing was performed against BSL2 pathogens by Nova Biologicals, Inc. (Conroe, Tex.).

Data set [3] deals with B. subtilis (ATCC 6633). The format is cell-based. The following applies: ATCC 6633. The method in brief:
(§3)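 MICs by broth microdilution per CLSI M7-A6 in cation-adjusted Mueller-Hinton broth, using 2:1 serial dilutions of peptoid and a bacterial inoculum of 1×10^6 CFU/mL. Values reproducible over three experiments, each with two parallel trials.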

The subject of data set [4] is E. coli (ATCC 35218). It counts as cell-based. The following applies: ATCC 35218. The method in brief: as §3
In data set [5] the test system is A549 lung epithelial cells. Put plainly: MTS assay, metabolic inhibition. The procedure:
The biocompatibility of selected oligomers with A549 lung epithelial cells was evaluated using the MTS [3-(4,5-dimethylthiazol-2-yl)-5-(3-carboxymethoxyphenyl)-2-(4-sulfophenyl)-2H-tetrazolium] assay.
MTS Assays. A549 carcinoma-derived lung epithelial cells (ATTC CCL-185) were cultured in Ham's F12K media (ATTC, Manassas, Va.). A peptoid solution plate (100 μL/well) was prepared by serial dilution of aqueous peptoid stocks in media. Peptoid solutions were transferred onto a 96-well plate of day-old cell monolayers containing 100 μL/well media with ˜5000 cells/well. MTS reagent (Promega Corporation, Madison, Wis.) (40 μL/well) was added to each well and the plate was incubated at 37° C. for 3 h, after which absorbance at 490 nm was determined. Percent inhibition was determined as [1−(A−Atest blank)/(Acontrol−Ablank)]×100, where A is the absorbance of the test well and Acontrol the average absorbance of wells with cells exposed to media and MTS (no peptoid). Atest blank (media, MTS, and peptoid) and Ablank (media and MTS) were background absorbances measured in the absence of cells. The average of six replicates are reported, and error bars show one standard deviation.
For orientation: Formazan colour is commonly taken as a measure of viable cells.

Data set [6] has as its system human erythrocytes. The data set can be described thus: Hemolysis assay. The format is cell-based. The method in brief:
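Human erythrocytes from fresh heparinised blood, 20 vol % in PBS pH 7.4, mixed 1:1 with 2-fold serial peptoid dilutions; PBS as 0% and 0.2 vol % Triton X-100 as 100% hemolysis. Incubated 1 h at 37 °C, diluted, centrifuged 1200 g for 15 min; supernatant A350 read.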

In data set [7] the test system is B. subtilis BR151. It counts as cell-based. The following applies: Table 1.
Description: as §1, §2

Consider `C[C@@H](c1ccccc1)N(CC(=O)N(CCc1cnc[nH]1)CC(=O)N(CCCCN)CC(=O)N(CC(=O)N(CC(=O)N(CCCCN)CC(=O)N(CC(=O)N(CCc1cnc[nH]1)CC(N)=O)[C@@H](C)c1ccccc1)[C@@H](C)c1ccccc1)[C@@H](C)c1ccccc1)C(=O)CN(CCCCN)C(=O)CN(C(=O)CN(C(=O)CNCCCCN)[C@@H](C)c1ccccc1)[C@@H](C)c1ccccc1` [1-Nhis6,12] (H-[Nlys][Nspe][Nspe][Nlys][Nspe][Gly(N-CH2CH2-imidazol-4-yl)][Nlys][Nspe][Nspe][Nlys][Nspe][Gly(N-CH2CH2-imidazol-4-yl)]-NH2), for which the “mice that died prematurely during the exposure period” value in data set [1] is recorded as “eight”. The compound further registered an MICs in data set [2] (JM109) of under 7 µM. In addition, the “B. subtilis MIC” value in data set [3] amounted to 1.6 µM. For the same compound, the “E. coli MIC” value in data set [4] is over 50 µM. Besides, the “ID10 relative to that of pexiganan” value in data set [5] amounted to 20 times. Besides, in data set [6], the HD10 was >110/>110 μM and the HD50 was >110/>110 μM. Moreover, in data set [6] (red cells of human, 1 h), the “HD10 (10% hemolytic dose)” value was >110/>110 μM and the “HD50 (50% hemolytic dose)” value is >110/>110 μM.
As for `C[C@H](c1ccccc1)N(CC(N)=O)C(=O)CN(C(=O)CN(CCCCN)C(=O)CN(C(=O)CN(C(=O)CN(CCCCN)C(=O)CN(C(=O)CN(C(=O)CN(CCCCN)C(=O)CN(C(=O)CN(C(=O)CNCCCCN)[C@H](C)c1ccccc1)[C@H](C)c1ccccc1)[C@H](C)c1ccccc1)[C@H](C)c1ccccc1)[C@H](C)c1ccccc1)[C@H](C)c1ccccc1)[C@H](C)c1ccccc1` [1enantiomer], in data set [7], the “B. subtilis MIC” value was determined as 0.88 µM. In addition, the “E. coli MIC” value in data set [2] (Table 1, E. coli JM109) is 3.5 µM. In data set [6] (Table 1, human erythrocytes), the “HD10 (10% hemolytic dose)” value worked out at 16 µM and the “HD50 (50% hemolytic dose)” value turned out to be 86 µM.
